Assay results published in article PMC11904721 (ACS Omega, 2025).

Target: S. aureus DNA gyrase (Staphylococcus aureus, UniProt P0A0K8+P20831)
Assay: DNA gyrase supercoiling inhibition assay
Type: biochemical
Conditions: read-out: IC50(μM) (mean ± SEM) / S. aureusDNA gyrase supercoiling

S. aureus DNA gyrase, sequence (P20831 whole entry): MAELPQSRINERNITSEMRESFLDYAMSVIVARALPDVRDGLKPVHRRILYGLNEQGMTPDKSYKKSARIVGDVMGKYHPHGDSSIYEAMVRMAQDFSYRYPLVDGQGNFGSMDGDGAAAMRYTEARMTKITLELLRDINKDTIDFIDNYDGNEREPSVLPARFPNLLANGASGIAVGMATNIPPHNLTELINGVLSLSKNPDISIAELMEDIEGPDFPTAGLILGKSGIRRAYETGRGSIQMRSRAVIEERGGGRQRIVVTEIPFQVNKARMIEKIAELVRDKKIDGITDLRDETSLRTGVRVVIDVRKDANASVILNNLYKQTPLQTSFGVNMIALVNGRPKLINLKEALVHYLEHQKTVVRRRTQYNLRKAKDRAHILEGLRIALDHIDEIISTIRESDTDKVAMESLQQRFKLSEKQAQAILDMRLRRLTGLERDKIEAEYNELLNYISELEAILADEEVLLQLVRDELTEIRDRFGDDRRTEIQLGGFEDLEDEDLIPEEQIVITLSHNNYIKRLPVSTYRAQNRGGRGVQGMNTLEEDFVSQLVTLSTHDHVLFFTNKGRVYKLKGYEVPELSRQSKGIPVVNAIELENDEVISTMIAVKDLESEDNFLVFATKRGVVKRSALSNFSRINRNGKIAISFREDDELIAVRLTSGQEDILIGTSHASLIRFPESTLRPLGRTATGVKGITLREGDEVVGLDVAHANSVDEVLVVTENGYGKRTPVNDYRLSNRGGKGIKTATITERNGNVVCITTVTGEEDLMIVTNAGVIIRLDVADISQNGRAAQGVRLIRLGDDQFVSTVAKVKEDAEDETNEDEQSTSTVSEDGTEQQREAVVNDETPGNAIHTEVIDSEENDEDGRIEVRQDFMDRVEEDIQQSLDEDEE
S. aureus DNA gyrase, sequence (P0A0K8 2-644): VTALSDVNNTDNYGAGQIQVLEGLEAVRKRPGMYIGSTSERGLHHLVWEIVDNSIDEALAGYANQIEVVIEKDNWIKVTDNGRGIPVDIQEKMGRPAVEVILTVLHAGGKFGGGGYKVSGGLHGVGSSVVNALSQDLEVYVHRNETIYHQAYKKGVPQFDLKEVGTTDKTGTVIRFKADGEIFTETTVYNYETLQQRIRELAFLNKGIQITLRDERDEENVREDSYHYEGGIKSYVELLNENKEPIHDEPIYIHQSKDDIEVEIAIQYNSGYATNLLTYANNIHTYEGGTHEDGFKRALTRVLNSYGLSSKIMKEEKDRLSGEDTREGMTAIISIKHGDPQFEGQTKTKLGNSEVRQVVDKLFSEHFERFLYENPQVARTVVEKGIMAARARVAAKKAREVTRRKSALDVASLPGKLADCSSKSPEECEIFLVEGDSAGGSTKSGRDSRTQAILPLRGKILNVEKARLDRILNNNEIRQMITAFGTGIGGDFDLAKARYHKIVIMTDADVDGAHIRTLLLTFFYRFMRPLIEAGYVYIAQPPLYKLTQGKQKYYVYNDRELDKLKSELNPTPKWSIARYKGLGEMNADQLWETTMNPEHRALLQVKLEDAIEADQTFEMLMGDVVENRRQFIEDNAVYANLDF

| Structure (SMILES) | IC50 [µM] |
| --- | --- |
| CS(=O)(=O)N1SCC(=O)c2c1sc1c2SC2N(c3ccccc3)C(=O)c3ccccc3N12 (centres unmarked) [compound 4, 11-(methylsulfonyl)-6-phenyl-6,6a-dihydro-5H,9H-[1,2]thiazino[4″,3”:4′,5′]thieno[2′,3′:4,5]thiazolo[3,2-a]quinazoline-5,8(11H)-dione] | 11.7 ± 0.47 |
| CCOC(=O)c1c(-n2cnnn2)sc2c1SC1N(c3ccccc3)C(=O)c3ccccc3N21 (centres unmarked) [compound 5, Ethyl 5-Oxo-6-phenyl-9-(1H-tetrazol-1-yl)-6,6a-dihydro-5H-thieno[2′,3′:4,5]thiazolo[3,2-a]quinazoline-8-carboxylate] | 7.13 ± 0.28 |
